Reference: patent US20240092761A1, “QUINAZOLINE COMPOUNDS AND METHODS OF USE” (IAMBIC THERAPEUTICS, INC., priority 2022, published 2024)

Legend:
[1] = biological target: CDK2/Cyclin E1 full length (Homo sapiens (Human), UniProt P24941); test: CDK2/Cyclin E1 Full Length ADP-Glo Kinase Assay; assay type: biochemical; settings: 20 uM ATP, read-out: CDK2/ CyclinE1 IC50
Summary of the method: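 Full-length human CDK2/Cyclin E1 (0.328 nM) pre-incubated 30 min with inhibitor at RT, then reacted 90 min at RT with 20 uM ATP (Km 64.78 uM) and 0.75 uM substrate in pH 7.5 HEPES, 2% DMSO. ADP measured by ADP-Glo luminescence; IC50 from 4-parameter fit of fractional velocity.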

OVCAR-3 cells = test: Cell Growth Inhibition, OVCAR-3 (CellTiterGlo, 6 days); assay type: cell-based; settings: Homo sapiens, 144 h; OVCAR-3, 6-day treatment, CellTiterGlo 2.0
Summary of the method: (§1)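 MCF-7 and OVCAR-3 cells (RPMI, 10% FBS) were seeded at 500 cells/well onto compound, typically 10–10,000 nM in half-log dilutions. Growth proceeded 6 days at 37 °C, then CellTiterGlo luminescence was read. % inhibition was taken versus control, and IC50 came from a four-parameter variable-slope fit.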

MCF-7 cells = test: Cell Growth Inhibition, MCF-7 (CellTiterGlo, 6 days); assay type: cell-based; settings: Homo sapiens, MCF7, 144 h; MCF-7, 6-day treatment, CellTiterGlo 2.0
Summary of the method: as §1

CDK6/Cyclin D3 = CDK6/Cyclin D3 (Homo sapiens (Human), UniProt Q00534); test: CDK6/Cyclin D3 ADP-Glo Kinase Assay; assay type: biochemical; settings: 100 uM ATP, read-out: CDK6/ CyclinD3 IC50
Sequence of CDK6/Cyclin D3 (Q00534 whole entry): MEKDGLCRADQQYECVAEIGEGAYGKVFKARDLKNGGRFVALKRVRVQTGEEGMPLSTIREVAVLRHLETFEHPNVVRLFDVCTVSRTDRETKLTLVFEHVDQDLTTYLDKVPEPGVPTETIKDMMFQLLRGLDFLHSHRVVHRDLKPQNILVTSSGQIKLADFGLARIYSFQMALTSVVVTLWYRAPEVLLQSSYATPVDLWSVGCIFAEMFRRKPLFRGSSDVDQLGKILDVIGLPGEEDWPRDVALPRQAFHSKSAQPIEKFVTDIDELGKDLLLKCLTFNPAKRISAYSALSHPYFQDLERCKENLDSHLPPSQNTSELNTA
Sequence of CDK6/Cyclin D3 (P30281 whole entry partner): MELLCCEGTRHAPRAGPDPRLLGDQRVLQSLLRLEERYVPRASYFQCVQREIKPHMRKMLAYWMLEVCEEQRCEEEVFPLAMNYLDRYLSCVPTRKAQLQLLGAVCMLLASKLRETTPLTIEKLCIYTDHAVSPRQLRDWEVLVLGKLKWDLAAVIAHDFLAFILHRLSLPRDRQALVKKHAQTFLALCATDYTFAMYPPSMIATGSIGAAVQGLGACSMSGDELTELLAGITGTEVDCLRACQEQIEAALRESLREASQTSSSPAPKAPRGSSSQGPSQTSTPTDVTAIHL
Summary of the method: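 Recombinant human CDK6/Cyclin D3 pre-incubated 30 min with inhibitor at room temperature, then reaction started with ATP/substrate and run 90 min at room temperature. ADP formed detected by ADP-Glo luminescence; IC50 from a 4-parameter fit of fractional velocity versus inhibitor concentration.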

CDK1/Cyclin B1 = CDK1/Cyclin B1 (Homo sapiens (Human), UniProt P06493); test: CDK1/Cyclin B1 ADP-Glo Kinase Assay; assay type: biochemical; settings: 80 uM ATP
Sequence of CDK1/Cyclin B1 (P06493 whole entry): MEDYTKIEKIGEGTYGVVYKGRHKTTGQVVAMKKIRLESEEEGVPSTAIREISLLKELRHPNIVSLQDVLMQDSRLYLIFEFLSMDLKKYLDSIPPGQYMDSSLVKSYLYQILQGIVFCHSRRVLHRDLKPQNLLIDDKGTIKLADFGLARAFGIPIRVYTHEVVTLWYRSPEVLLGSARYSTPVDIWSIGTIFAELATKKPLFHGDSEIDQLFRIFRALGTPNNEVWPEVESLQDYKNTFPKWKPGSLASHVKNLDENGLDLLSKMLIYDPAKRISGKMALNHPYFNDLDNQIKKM
Sequence of CDK1/Cyclin B1 (P14635 whole entry partner): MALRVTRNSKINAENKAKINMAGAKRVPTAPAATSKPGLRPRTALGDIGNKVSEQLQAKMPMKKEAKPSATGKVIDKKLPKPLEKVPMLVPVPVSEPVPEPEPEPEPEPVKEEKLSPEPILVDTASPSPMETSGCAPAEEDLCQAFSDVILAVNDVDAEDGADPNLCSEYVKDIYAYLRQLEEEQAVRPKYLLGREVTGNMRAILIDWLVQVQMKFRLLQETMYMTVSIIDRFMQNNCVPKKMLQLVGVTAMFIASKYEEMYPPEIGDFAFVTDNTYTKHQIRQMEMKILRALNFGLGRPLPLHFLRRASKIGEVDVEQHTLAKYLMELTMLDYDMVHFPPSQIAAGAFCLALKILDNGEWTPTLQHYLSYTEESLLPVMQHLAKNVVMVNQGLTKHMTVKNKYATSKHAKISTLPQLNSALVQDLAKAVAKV
Summary of the method: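 CDK1/cyclin B1 (4.917 nM) preincubated 30 min with inhibitor (2% DMSO), then 80 µM ATP (Km 78.6 µM) and 0.75 µM substrate added; 90 min, room temperature, pH 7.5. ADP measured by ADP-Glo luminescence; IC50 from 4-parameter fit.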

CDK4/Cyclin D1 = CDK4/Cyclin D1 (Homo sapiens (Human), UniProt P11802); test: CDK4/Cyclin D1 Mobility Shift Assay (MSA); assay type: biochemical; settings: 0.2 mM ATP, read-out: CDK4/ CyclinD1 MSA IC50
Sequence of CDK4/Cyclin D1 (P11802 whole entry): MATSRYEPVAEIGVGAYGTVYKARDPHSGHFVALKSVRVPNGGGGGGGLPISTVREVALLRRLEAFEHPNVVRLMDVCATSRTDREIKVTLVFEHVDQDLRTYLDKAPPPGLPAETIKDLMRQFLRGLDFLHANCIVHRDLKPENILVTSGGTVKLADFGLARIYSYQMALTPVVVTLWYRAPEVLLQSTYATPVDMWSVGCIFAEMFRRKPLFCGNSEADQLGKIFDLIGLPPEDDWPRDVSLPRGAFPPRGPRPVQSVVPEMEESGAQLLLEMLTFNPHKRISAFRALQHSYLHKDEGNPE
Sequence of CDK4/Cyclin D1 (P24385 whole entry partner): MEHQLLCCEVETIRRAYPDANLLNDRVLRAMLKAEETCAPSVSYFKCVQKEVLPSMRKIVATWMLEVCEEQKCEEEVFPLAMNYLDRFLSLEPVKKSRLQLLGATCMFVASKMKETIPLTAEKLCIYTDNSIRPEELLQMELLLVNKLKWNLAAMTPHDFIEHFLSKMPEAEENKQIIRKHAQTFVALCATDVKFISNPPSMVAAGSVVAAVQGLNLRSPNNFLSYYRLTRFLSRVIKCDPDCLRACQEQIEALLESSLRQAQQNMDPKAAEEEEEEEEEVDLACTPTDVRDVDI
Summary of the method: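 Reaction: 2.5 nM enzyme, 0.2 mM ATP, 1.5 µM 5-FAM-Dyrktide, 10 mM MgCl2, 2 mM DTT, 2% DMSO, 50 mM HEPES pH 7.5. Inhibitor was preincubated 30 min at 22 °C, then the reaction ran 180 min before EDTA stop. Microfluidic separation of substrate and product gave % conversion, and IC50 came from a 4-parameter fit.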

IC50 [1]: 500 to 2000 nM
IC50 (OVCAR-3 cells): > 2000 nM
IC50 (MCF-7 cells): > 2000 nM
IC50 (CDK6/Cyclin D3): 500 to 2000 nM
IC50 (CDK1/Cyclin B1): > 2000 nM
IC50 (CDK4/Cyclin D1): 200 to 500 nM
Compound: CN1CC2(CCC1=O)CCN(c1cccc3cnc(NC4CCN(S(C)(=O)=O)CC4)nc13)C2 (stereo not drawn) [Example 55, 7-methyl-2-(2-((1-(methylsulfonyl)piperidin-4-yl)amino)quinazolin-8-yl)-2,7-diazaspiro[4.5]decan-8-one]
